pKi: −log10 of the molar value.
Biological target: T1, human MC2R (Homo sapiens, UniProt Q01718)
T1 construct: host or cells: CellSensor CRE-bla CHO-K1
Test: Inhibition of ACTH binding: radioactive competition binding assay, hMC2R membranes
Protocol: Crude membrane fractions are prepared from CellSensor CRE-bla CHO-K1 cells stably expressing functional hMC2 receptor (ThermoFisher #K1483). The cells are cultured to 85-100% confluency in growth media [GlutaMax DMEM (Gibco #10569-010) supplemented with 10% dialyzed fetal bovine serum (Gemini Bio-Products #100-108), 0.1 mM non-essential amino acids (Gibco #11140-050), 100 U/mL penicillin; 100 μg/mL streptomycin; 2 mM L-glutamine (Gemini Bio-Products #400-110), 5 μg/mL blasticidin (GoldBio #B-800-100), 100 μg/mL zeocin (Invitogen #R25005) and 600 μg/mL hygromycin B (GoldBio #31282-04-9)]. Cells were collected and washed in Dulbecco's phosphate buffered saline (Corning #21-031-CV). […]
The inhibition of binding to the human MC2R receptor was measured in a radioactive competition binding assay using the radiolabeled [^125I]-TYR^23]-ACTH (1-39) ligand (PerkinElmer #NEX083, custom synthesis) as the probe ligand for the receptor. […] The radioactive signal was detected using a MicroBetaTriLux 1450 LSC (PerkinElmer). […]
The selectivity over other human MCR subtypes was evaluated using commercially available MC1R, MC3R, MC4R, and MCSR membrane binding assays. […]

T1 sequence (Q01718 whole entry): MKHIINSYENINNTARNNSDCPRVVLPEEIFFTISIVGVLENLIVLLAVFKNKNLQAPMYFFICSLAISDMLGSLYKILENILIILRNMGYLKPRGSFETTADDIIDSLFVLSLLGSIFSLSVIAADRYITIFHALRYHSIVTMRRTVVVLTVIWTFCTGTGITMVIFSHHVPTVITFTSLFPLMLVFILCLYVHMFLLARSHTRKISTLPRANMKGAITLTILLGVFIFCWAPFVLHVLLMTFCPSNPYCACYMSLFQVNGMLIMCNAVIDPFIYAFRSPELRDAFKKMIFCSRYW
T1 sequence (Q8TCY5 whole entry partner): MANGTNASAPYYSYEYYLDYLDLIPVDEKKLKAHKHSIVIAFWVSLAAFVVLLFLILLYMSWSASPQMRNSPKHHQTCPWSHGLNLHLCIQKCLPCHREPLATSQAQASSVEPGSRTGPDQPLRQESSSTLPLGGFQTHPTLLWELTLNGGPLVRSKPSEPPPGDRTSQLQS

Q: What does the source list for `CCOc1ccccc1-c1ccc(N2CCN(C(=O)C3(C(F)(F)F)CCC3)C[C@H]2CC)c(C(=O)N[C@@H]2CN3CCC2CC3)n1` [Compound 1, 6-(2-ethoxyphenyl)-3-((R)-2-ethyl-4-(1-(trifluoromethyl)cyclobutane-1-carbonyl)piperazin-1-yl)-N—((S)-quinuclidin-3-yl)picolinamide]?
A: pKi (hMC2R membranes, [125I]-Tyr23-ACTH(1-39) probe, read-out: equilibrium inhibitory constant (Ki) in a binding assay): > 8.00; selectivity for MC2R versus the other human MCRs (over MC1R, MC3R, MC4R, MCSR): > 2900 fold

— US12280046B2, “Melanocortin subtype-2 receptor (MC2R) antagonist for the treatment of disease” (Crinetics Pharmaceuticals, Inc., priority 2021, dated 2025)
